Measured values: BindingDB's records for patent US11241438 (Incyte Corporation, 2022)

Molecular target: T1, Tyrosine-protein kinase receptor TYRO3 (Homo sapiens, UniProt Q06418)
T1 sequence (Q06418 whole entry): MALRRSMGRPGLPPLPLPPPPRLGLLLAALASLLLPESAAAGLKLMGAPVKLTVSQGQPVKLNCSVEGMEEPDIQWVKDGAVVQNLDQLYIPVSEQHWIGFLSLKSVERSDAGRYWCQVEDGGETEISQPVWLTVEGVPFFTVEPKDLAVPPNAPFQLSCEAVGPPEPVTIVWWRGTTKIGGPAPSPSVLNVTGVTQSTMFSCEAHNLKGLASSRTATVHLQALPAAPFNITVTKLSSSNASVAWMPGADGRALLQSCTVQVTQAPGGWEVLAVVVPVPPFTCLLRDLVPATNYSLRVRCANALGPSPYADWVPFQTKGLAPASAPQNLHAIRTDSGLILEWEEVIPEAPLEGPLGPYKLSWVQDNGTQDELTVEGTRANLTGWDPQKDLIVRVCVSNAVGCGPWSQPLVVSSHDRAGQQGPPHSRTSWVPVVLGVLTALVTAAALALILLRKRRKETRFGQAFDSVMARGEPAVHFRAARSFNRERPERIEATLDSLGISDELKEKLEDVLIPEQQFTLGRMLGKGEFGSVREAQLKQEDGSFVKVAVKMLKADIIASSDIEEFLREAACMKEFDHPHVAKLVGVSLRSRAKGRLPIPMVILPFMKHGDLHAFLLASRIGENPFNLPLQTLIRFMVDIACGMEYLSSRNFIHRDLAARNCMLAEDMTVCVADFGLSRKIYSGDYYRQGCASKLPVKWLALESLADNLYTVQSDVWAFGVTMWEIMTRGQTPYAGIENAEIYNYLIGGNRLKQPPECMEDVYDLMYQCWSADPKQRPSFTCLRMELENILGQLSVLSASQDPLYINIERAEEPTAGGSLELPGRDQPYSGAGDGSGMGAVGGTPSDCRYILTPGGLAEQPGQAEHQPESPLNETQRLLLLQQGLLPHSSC
Test: TAM Enzymatic Assay
Description: The kinase assay buffer contained 50 mM HEPES, pH7.5, 10 mM MgCl2, 1 mM EGTA, 0.01% NP-40 and 2 mM DTT. 0.1 ul test compounds dissolved in DMSO were transferred from compound plates to white 384-well assay plates (Greiner […] plates). The final concentration of DMSO was 1.25%. Enzyme solutions of 5.1 nM phosphor-Axl, or 0.0625 nM c-Mer (Carna Biosciences, 08-108), or 0.366 nM Tyro3 (Life Technologies, PR7480A) were prepared in assay buffer. A 1 mM stock solution of peptide substrate Biotin-[…]-amide SEQ ID NO: 1 (Quality Controlled Biochemicals, MA) dissolved in DMSO was diluted to 1 uM in assay buffer containing 2000 uM ATP. 4 ul enzyme solution (or assay buffer for the enzyme blank) was added to the appropriate wells in each plate, and then 4 ul/well substrate solution was added to initiate the reaction. The plate was protected from light and incubated at room temperature for 60 min. […] The plate was incubated for 1 h at room temperature, and HTRF (homogenous time resolved fluorescence) signal was measured on a PHERAstar FS plate reader (BMG labtech). Percentage of inhibition was calculated for each concentration and IC50 value was generated from curve fitting with GraphPad Prism software.

Work on `CC(C)C(=O)N1CCC(c2cc(-c3ccc(NC(=O)c4cn(C(C)C)c(=O)n(-c5ccccn5)c4=O)cc3)c3c(N)ncnn23)CC1` [US11241438, Compound I] yielded an IC50 of 0.055 µM.
